Results from PMC13183915, “A platinum butterfly effect: small changes turn an anticancer drug into a non-toxic metalloantibiotic with in vivo efficacy” (npj Antimicrobials and Resistance, 2026).
In brackets after ≈: the same amount, converted by molar mass. Where two headings read alike, the source gives them in different places.

Assays:
[1] = test system: 36th Passage S.aureus ATCC 29213 in the presence of Pt-1; test: microbe, parasite or virus in culture; format: cell-based; conditions: Staphylococcus aureus, ATCC29213
Procedure: The MICs of the passaged cultures were determined every 3 days and compared to that of wild type S. aureus ATCC 29213. MIC changes were recorded for 36 passages.

S. aureus ATCC 29213 = test: Drug interaction study (chequerboard assay); format: cell-based; conditions: for MIC: Staphylococcus aureus, ATCC29213; for FIC B: antibiotic in combination with Pt1 / alone; for FIC (FICA+FICB) / Interference: combination with Pt1; for Interference: synergistic ≤0.5, indifferent >0.5 to 4, antagonistic >4
Procedure: All compounds were freshly prepared for the experiment. […] Following incubation, the fractional inhibitory concentration index (FICI) was calculated with the formula FICI = […], whereby FICA = MIC of drug A in combination/MIC of drug A alone and FICB = MIC of drug B in combination/MIC of drug B alone. A drug combination is considered synergistic when ∑FICI is ≤0.5, indifferent when ∑FICI is >0.5 to 4, and antagonistic when ∑FICI is >4.

MSSA ATCC 29213 = test: Broth microdilution MIC, MSSA ATCC 29213; format: cell-based, S. aureus; conditions: Staphylococcus aureus
Procedure: The data is given in supporting information (Table S5). Before starting the experiment, a single colony was picked from MHA plate, inoculated in MHBII and incubated overnight at 37 °C with shaking for 18–24 h to get the starter culture. Antibiotic susceptibility testing was conducted according to the CLSI (Clinical & Laboratory Standards Institute) guidelines using the broth microdilution assay. 10 mg/mL stock solutions of test compounds were prepared in DMSO. Bacterial cultures were inoculated in MHBII and optical density (OD) was measured at 600 nm, followed by dilution to achieve ~10^6 CFU/mL. The compounds were tested from 64 to 0.5 mg/L in two-fold serial diluted fashion with 2.5 μL of each concentration added to well of a 96-well round bottom microtiter plate. Later, 97.5 μL of bacterial suspension was added to each well containing either test compound or appropriate controls. […] The MIC is defined as the lowest concentration of the compound at which there is absence of visible growth. For each test compound, MIC determinations were carried out independently three times using duplicate samples.

B. subtilis 168CA = test: ROS scavenger assay (modified MIC assay); format: cell-based, Bacillus subtilis
Procedure: LB media were prepared to contain either 10 mM tiron, 150 mM thiourea, 10 mM tiron and 150 mM thiourea, or no […]. Serial two-fold dilutions of the different antibiotics were prepared in the respective media and transferred to 96-well plates. […] The OD600 was meassured in a BMG Clariostar Plus plate reader.

[2] = test system: methicillin-sensitive Staphylococcus aureus (MSSA), clinical isolate; test: MIC assay, MSSA clinical isolate; format: cell-based; conditions: MSSA clinical isolate
Bacillus subtilis MW168 = test: MIC assay, B. subtilis MW168; format: cell-based; conditions: B. subtilis MW168
[3] = test system: methicillin-resistant S. aureus (MRSA) COL; test: MIC assay, MRSA COL; format: cell-based, Staphylococcus aureus; conditions: MRSA COL
Escherichia coli W3110 = test: MIC assay, E. coli; format: cell-based; conditions: E. coli, Table S2
[4] = compound alone, Table S8, read-out: MIC
[5] = S.aureus ATCC 29213 (unpassaged), Table S9, read-out: MIC

Compound | MIC [1] | MIC (S. aureus ATCC 29213; [4]) | FIC B (S. aureus ATCC 29213) | FIC (FICA+FICB) (S. aureus ATCC 29213) | Interference (S. aureus ATCC 29213) | other results
CO[C@H]1/C=C/O[C@@]2(C)Oc3c(C)c(O)c4c(O)c(c(/C=N/N5CCN(C)CC5)c(O)c4c3C2=O)NC(=O)/C(C)=C\C=C\[C@H](C)[C@H](O)[C@@H](C)[C@@H](O)[C@@H](C)[C@H](OC(C)=O)[C@@H]1C [Rifampicin] | 0.0156 mg/L (≈ 0.019 µM) | 0.0078 mg/L | 1 | 2 | no interaction | MIC (MSSA ATCC 29213): 0.0156 mg/L (≈ 0.019 µM)
OO [hydrogen peroxide] | – | – | – | – | – | MIC fold change (increase) with scavenger (B. subtilis 168CA; medium containing 10 mM tiron (superoxide scavenger)): not significantly affected; MIC fold change (increase) with scavenger (B. subtilis 168CA; medium containing 150 mM thiourea (hydroxyl radical scavenger)): 14 fold; MIC fold change (increase) with scavengers (B. subtilis 168CA; medium containing both tiron and thiourea): no additive effect
O=C1[O][Pt]2([NH][C@@H]3CCCC[C@H]3[NH]2)[O]C1=O [Oxaliplatin] | – | – | – | – | – | MIC [2]: > 100 µM; MIC (Bacillus subtilis MW168): > 100 µM; MIC [3]: > 100 µM; MIC (Escherichia coli W3110): > 100 µM
CCCCCCCCCC(=O)N[C@@H](Cc1c[nH]c2ccccc12)C(=O)N[C@H](CC(N)=O)C(=O)N[C@@H](CC(=O)O)C(=O)N[C@@H]1C(=O)NCC(=O)N[C@@H](CCCN)C(=O)N[C@@H](CC(=O)O)C(=O)N[C@H](C)C(=O)N[C@@H](CC(=O)O)C(=O)NCC(=O)N[C@H](CO)C(=O)N[C@@H]([C@H](C)CC(=O)O)C(=O)N[C@@H](CC(=O)c2ccccc2N)C(=O)O[C@@H]1C [Daptomycin] | 1 mg/L (≈ 0.617 µM) | 1 mg/L | 1 | 2 | no interaction | MIC (MSSA ATCC 29213; [5]): 1 mg/L (≈ 0.617 µM)
CC(=O)NC[C@H]1CN(c2ccc(N3CCOCC3)c(F)c2)C(=O)O1 [Linezolid] | 2 mg/L (≈ 5.93 µM) | 2 mg/L | 1 | 2 | no interaction | MIC (MSSA ATCC 29213; [5]): 2 mg/L (≈ 5.93 µM)
N.N.O=C([O-])C1(C(=O)[O-])CCC1.[Pt+2] [Carboplatin] | – | – | – | – | – | MIC [2]: > 100 µM; MIC (Bacillus subtilis MW168): > 100 µM; MIC [3]: > 100 µM; MIC (Escherichia coli W3110): > 100 µM
CN(C)c1ccc(O)c2c1C[C@H]1C[C@H]3[C@H](N(C)C)C(O)=C(C(N)=O)C(=O)[C@@]3(O)C(O)=C1C2=O [Minocycline] | 0.125 mg/L (≈ 0.273 µM) | – | 1 | 2 | no interaction | MIC (S. aureus ATCC 29213): 0.125 mg/L; MIC (MSSA ATCC 29213): 0.0625 mg/L (≈ 0.137 µM)
